Target: T1, GlyT1 (Homo sapiens, UniProt P48067)
T1 construct: expressed in transfected cells
T1 sequence (P48067 1-706): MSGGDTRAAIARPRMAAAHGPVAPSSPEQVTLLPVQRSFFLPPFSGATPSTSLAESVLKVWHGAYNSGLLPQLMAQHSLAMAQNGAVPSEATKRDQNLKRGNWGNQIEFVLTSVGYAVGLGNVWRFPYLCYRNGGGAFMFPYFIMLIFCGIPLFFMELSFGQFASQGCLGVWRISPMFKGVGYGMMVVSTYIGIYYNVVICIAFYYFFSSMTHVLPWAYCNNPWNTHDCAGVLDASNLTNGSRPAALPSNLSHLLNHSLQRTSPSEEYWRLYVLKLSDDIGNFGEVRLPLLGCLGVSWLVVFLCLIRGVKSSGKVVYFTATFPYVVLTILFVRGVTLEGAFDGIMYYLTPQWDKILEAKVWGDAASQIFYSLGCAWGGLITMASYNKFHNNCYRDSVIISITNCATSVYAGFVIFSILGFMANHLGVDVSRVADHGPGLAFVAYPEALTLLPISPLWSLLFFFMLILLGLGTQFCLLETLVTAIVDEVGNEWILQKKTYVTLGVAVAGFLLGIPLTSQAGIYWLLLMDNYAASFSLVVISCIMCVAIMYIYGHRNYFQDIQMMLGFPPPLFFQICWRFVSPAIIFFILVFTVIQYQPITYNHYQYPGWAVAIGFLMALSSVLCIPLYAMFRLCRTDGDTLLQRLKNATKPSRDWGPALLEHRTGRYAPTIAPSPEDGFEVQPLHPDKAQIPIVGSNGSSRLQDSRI
Assay: Glycine Transporter 1 (GlyT1) uptake assay, scintillation proximity assay of [14C]-glycine uptake
Type: cell-based
Settings: SPA, four parameter logistic fit, read-out: GlyT1 (pIC50) (converted)
Method in brief: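 [14C]-glycine uptake read by scintillation proximity on a plate counter. IC50 from four-parameter logistic fit of dose-response data.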

Compound `N#Cc1ccc(C2CCCC2)c(C(=O)N2CCc3nn(-c4ccccc4)cc3C2)c1F` [Example 175, 4-Cyclopentyl-2-fluoro-3-{2-phenyl-2H 4H 5H 6H 7H-pyrazolo[4,3-c]pyridine-5-carbonyl}benzonitrile] has an IC50 of 100 to 1000 nM.

With `COc1c(C#N)ccc(OC(C)C(F)(F)F)c1C(=O)N1CCc2nn(-c3ccccc3)cc2C1` (stereo not drawn) [Example 176, 2-Methoxy-3-{2-phenyl-2H 4H 5H 6H 7H-pyrazolo[4,3-c]pyridine-5-carbonyl}-4-[(1 1 1-trifluoropropan-2-yl)oxy]benzonitrile] the IC50 was less than 100 nM.

`CC(Oc1ccc(C#N)c(Cl)c1C(=O)N1CCc2nn(-c3ccc(F)cc3)cc2C1)C(F)(F)F` (stereo not drawn) [Example 177, 2-Chloro-3-[2-(4-fluorophenyl)-2H 4H 5H 6H 7H-pyrazolo[4,3-c]pyridine-5-carbonyl]-4-[(1 1 1-trifluoropropan-2-yl)oxy]benzonitrile] showed an IC50 of 100 to 1000 nM.

Compound `N#Cc1ccc(C2(F)COC2)c(C(=O)N2CCc3nn(-c4ccccc4)cc3C2)c1F` [Example 178, 2-Fluoro-4-(3-fluorooxetan-3-yl)-3-{2-phenyl-2H 4H 5H 6H 7H-pyrazolo[4,3-c]pyridine-5-carbonyl}benzonitrile] has an IC50 greater than 10000 nM.

Work on `CC(Oc1ccc(C#N)c(Cl)c1C(=O)N1CCc2c(cnn2-c2ccc(F)cc2F)C1)C(F)(F)F` (stereo not drawn) [Example 179, 2-Chloro-3-[1-(2 4-difluorophenyl)-1H 4H 5H 6H 7H-pyrazolo[4,3-c]pyridine-5-carbonyl]-4-[(1 1 1-trifluoropropan-2-yl)oxy]benzonitrile] yielded an IC50 of 100 to 1000 nM.

Compound `N#Cc1ccc(C2CCC2)c(C(=O)N2CCc3nn(-c4ccccc4)cc3C2)c1F` [Example 180, 4-Cyclobutyl-2-fluoro-3-{2-phenyl-2H 4H 5H 6H 7H-pyrazolo[4,3-c]pyridine-5-carbonyl}benzonitrile] has an IC50 of 1000 to 10000 nM.

Work on `CC(Oc1ccc(C#N)cc1C(=O)N1CCc2nn(-c3ccc(F)cc3)cc2C1)C(F)(F)F` (stereo not drawn) [Example 181, 3-[2-(4-Fluorophenyl)-2H 4H 5H 6H 7H-pyrazolo[4,3-c]pyridine-5-carbonyl]-4-[(1 1 1-trifluoropropan-2-yl)oxy]benzonitrile] yielded an IC50 of 1000 to 10000 nM.

For `CC(Oc1ccc(C#N)c(Cl)c1C(=O)N1CCc2c(c(C(F)(F)F)nn2C)C1)C(F)(F)F` (stereo not drawn) [Example 182, 2-Chloro-3-[1-methyl-3-(trifluoromethyl)-1H 4H 5H 6H 7H-pyrazolo[4,3-c]pyridine-5-carbonyl]-4-[(1 1 1-trifluoropropan-2-yl)oxy]benzonitrile], the IC50 was 1000 to 10000 nM.

`CC(Oc1ccc(C#N)c(Cl)c1C(=O)N1CCc2[nH]ncc2C1)C(F)(F)F` (stereo not drawn) [Example 183, 2-Chloro-3-{1H 4H 5H 6H 7H-pyrazolo[4,3-c]pyridine-5-carbonyl}-4-[(1 1 1-trifluoropropan-2-yl)oxy]benzonitrile] showed an IC50 greater than 10000 nM.

With `CCOc1c2c(nn1-c1ccc(F)cc1)CCN(C(=O)c1c(OC(C)C(F)(F)F)ccc(C#N)c1Cl)C2` (stereo not drawn) [Example 184, 2-Chloro-3-[3-ethoxy-2-(4-fluorophenyl)-2H 4H 5H 6H 7H-pyrazolo[4,3-c]pyridine-5-carbonyl]-4-[(1 1 1-trifluoropropan-2-yl)oxy]benzonitrile] the IC50 was 1000 to 10000 nM.

Compound `CC(Oc1ccc(C#N)c(Cl)c1C(=O)N1Cc2cnn(-c3ccc(F)cc3)c2C(C)(C)C1)C(F)(F)F` (stereo not drawn) [Example 185, 2-Chloro-3-[1-(4-fluorophenyl)-7 7-dimethyl-1H 4H 5H 6H 7H-pyrazolo[4,3-c]pyridine-5-carbonyl]-4-[(1 1 1-trifluoropropan-2-yl)oxy]benzonitrile] has an IC50 of less than 100 nM.

`CC(Oc1ccc(C#N)c(Cl)c1C(=O)N1CCc2nn(C)c(C(F)(F)F)c2C1)C(F)(F)F` (stereo not drawn) [Example 186, 2-Chloro-3-[2-methyl-3-(trifluoromethyl)-2H 4H 5H 6H 7H-pyrazolo[4,3-c]pyridine-5-carbonyl]-4-[(1 1 1-trifluoropropan-2-yl)oxy]benzonitrile] gave an IC50 of 1000 to 10000 nM.

Compound `N#Cc1ccc(C2(F)CCCC2)c(C(=O)N2CCc3nn(-c4ccccc4)cc3C2)c1F` [Example 187, 2-Fluoro-4-(1-fluorocyclopentyl)-3-{2-phenyl-2H 4H 5H 6H 7H-pyrazolo[4,3-c]pyridine-5-carbonyl}benzonitrile] has an IC50 of 100 to 1000 nM.

`N#Cc1ccc(C2(F)CCCC2)c(C(=O)N2CCc3nn(-c4ccc(F)cc4)cc3C2)c1F` [Example 188, 2-Fluoro-4-(1-fluorocyclopentyl)-3-[2-(4-fluorophenyl)-2H 4H 5H 6H 7H-pyrazolo[4,3-c]pyridine-5-carbonyl]benzonitrile] showed an IC50 of 100 to 1000 nM.

For `Cc1c2c(nn1-c1ccc(F)cc1)CCN(C(=O)c1c(OC(C)C(F)(F)F)ccc(C#N)c1Cl)C2` (stereo not drawn) [Example 189, 2-Chloro-3-[2-(4-fluorophenyl)-3-methyl-2H 4H 5H 6H 7H-pyrazolo[4,3-c]pyridine-5-carbonyl]-4-[(1 1 1-trifluoropropan-2-yl)oxy]benzonitrile], the IC50 was 100 to 1000 nM.

`Cc1nn(-c2ccc(F)cc2)c2c1CN(C(=O)c1c(OC(C)C(F)(F)F)ccc(C#N)c1Cl)CC2` (stereo not drawn) [Example 190, 2-Chloro-3-[1-(4-fluorophenyl)-3-methyl-1H 4H 5H 6H 7H-pyrazolo[4,3-c]pyridine-5-carbonyl]-4-[(1 1 1-trifluoropropan-2-yl)oxy]benzonitrile] showed an IC50 of 100 to 1000 nM.

Work on `CC(Oc1ccc(C#N)c(Cl)c1C(=O)N1Cc2cn(-c3ccc(F)cc3)nc2C(C)(C)C1)C(F)(F)F` (stereo not drawn) [Example 191, 2-Chloro-3-[2-(4-fluorophenyl)-7 7-dimethyl-2H 4H 5H 6H 7H-pyrazolo[4,3-c]pyridine-5-carbonyl]-4-[(1 1 1-trifluoropropan-2-yl)oxy]benzonitrile] yielded an IC50 of 1000 to 10000 nM.

For `COc1c(C#N)ccc(OC(C)C(F)(F)F)c1C(=O)N1Cc2cn(-c3ccc(F)cc3)nc2C(C)(C)C1` (stereo not drawn) [Example 192, 3-[2-(4-Fluorophenyl)-7 7-dimethyl-2H 4H 5H 6H 7H-pyrazolo[4,3-c]pyridine-5-carbonyl]-2-methoxy-4-[(1 1 1-trifluoropropan-2-yl)oxy]benzonitrile], the IC50 was 1000 to 10000 nM.

`CC(Oc1ccc(C#N)c(Cl)c1C(=O)N1CCc2nn(-c3ccccc3)cc2C1)C(F)(F)F` (stereo not drawn) [Example 193, 2-Chloro-3-{2-phenyl-2H 4H 5H 6H 7H-pyrazolo[4,3-c]pyridine-5-carbonyl}-4-[(1 1 1-trifluoropropan-2-yl)oxy]benzonitrile] gave an IC50 of 100 to 1000 nM.

`COc1c(C#N)ccc(OC(C)C(F)(F)F)c1C(=O)N1CCc2nn(-c3ccc(F)cc3F)cc2C1` (stereo not drawn) [Example 194, 3-[2-(2 4-Difluorophenyl)-2H 4H 5H 6H 7H-pyrazolo[4,3-c]pyridine-5-carbonyl]-2-methoxy-4-[(1 1 1-trifluoropropan-2-yl)oxy]benzonitrile] gave an IC50 of 100 to 1000 nM.

`CC(Oc1ccc(C#N)c(Cl)c1C(=O)N1CCc2c(cnn2Cc2ccccc2)C1)C(F)(F)F` (stereo not drawn) [Example 195, 3-{1-Benzyl-1H 4H 5H 6H 7H-pyrazolo[4,3-c]pyridine-5-carbonyl}-2-chloro-4-[(1 1 1-trifluoropropan-2-yl)oxy]benzonitrile] was tested, and the IC50 was 100 to 1000 nM.

`CC(Oc1ccc(C(N)=O)c(Cl)c1C(=O)N1CCc2nn(-c3ccc(F)cc3)cc2C1)C(F)(F)F` (stereo not drawn) [Example 196, 2-Chloro-3-[2-(4-fluorophenyl)-2H 4H 5H 6H 7H-pyrazolo[4,3-c]pyridine-5-carbonyl]-4-[(1 1 1-trifluoropropan-2-yl)oxy]benzamide] was tested, and the IC50 was 100 to 1000 nM.

`CC(Oc1ccc(C#N)c(Cl)c1C(=O)N1CCc2nn(-c3ccc(F)cc3)c(O)c2C1)C(F)(F)F` (stereo not drawn) [Example 197, 2-Chloro-3-[2-(4-fluorophenyl)-3-hydroxy-2H 4H 5H 6H 7H-pyrazolo[4,3-c]pyridine-5-carbonyl]-4-[(1 1 1-trifluoropropan-2-yl)oxy]benzonitrile] gave an IC50 greater than 10000 nM.

Work on `COc1c(S(C)(=O)=O)ccc(OC(C)C(F)(F)F)c1C(=O)N1CCc2nn(-c3ccc(F)cc3)cc2C1` (stereo not drawn) [Example 198, 2-(4-Fluorophenyl)-5-{3-methanesulfonyl-2-methoxy-6-[(1 1 1-trifluoropropan-2-yl)oxy]benzoyl}-2H 4H 5H 6H 7H-pyrazolo[4,3-c]pyridine] yielded an IC50 of less than 100 nM.

With `N#Cc1ccc(C2(F)CCOCC2)c(C(=O)N2CCc3nn(-c4ccc(F)cc4)cc3C2)c1F` [Example 199, 2-Fluoro-4-(4-fluorooxan-4-yl)-3-[2-(4-fluorophenyl)-2H 4H 5H 6H 7H-pyrazolo[4,3-c]pyridine-5-carbonyl]benzonitrile] the IC50 was 1000 to 10000 nM.

Work on `CC(Oc1ccc(C(=O)N(C)C)c(Cl)c1C(=O)N1CCc2nn(-c3ccc(F)cc3)cc2C1)C(F)(F)F` (stereo not drawn) [Example 200, 2-Chloro-3-[2-(4-fluorophenyl)-2H 4H 5H 6H 7H-pyrazolo[4,3-c]pyridine-5-carbonyl]-N N-dimethyl-4-[(1 1 1-trifluoropropan-2-yl)oxy]benzamide] yielded an IC50 of 1000 to 10000 nM.

In the case of `CC(Oc1ccc(C#N)c(Cl)c1C(=O)N1CCc2nn(-c3ccc(F)cn3)cc2C1)C(F)(F)F` (stereo not drawn) [Example 201, 2-Chloro-3-[2-(5-fluoropyridin-2-yl)-2H 4H 5H 6H 7H-pyrazolo[4,3-c]pyridine-5-carbonyl]-4-[(1 1 1-trifluoropropan-2-yl)oxy]benzonitrile], the IC50 is reported as 100 to 1000 nM.
